Values quoted from earlier work in PMC7904743, “WIDOCK: a reactive docking protocol for virtual screening of covalent inhibitors” (Journal of Computer-Aided Molecular Design, 2021).
Where two headings read alike, the source gives them in different places.

Tests used:
[1] = test system: OTUB2; conditions: experimental actives if % labeling higher than 50%; cited from earlier work
[2] = thiol reactivity, cited from earlier work
[3] = test system: NUDT7; conditions: protein labeling at 200 μM; experimental actives if % labeling higher than 50%; cited from earlier work
[4] = natural log of average rate constant k
[5] = natural logarithm of average rate constant

| SMILES | OTUB2 % labeling [1] | ln(avg k) [2, 4] | ln(avg k) [2, 5] | NUDT7 % labeling [3] |
| --- | --- | --- | --- | --- |
| CC1CCCCC1NC(=O)NC(=O)CCl (stereo not shown) [PCM-0102292, CC1CCCCC1NC(=O)NC(=O)CCl] | 24% | -15.785 | -15.785 | 0% |
| O=C(CCl)N1CCSC1c1ccccc1F (stereo not shown) [PCM-0102293, O=C(CCl)N1CCSC1c1ccccc1F] | 12% | -15.618 | -15.618 | 83% |
| O=C(CCl)Nc1nc2ccc(F)cc2s1 [PCM-0102294, O=C(CCl)Nc1nc2ccc(F)cc2s1] | 0% | -15.413 | -15.413 | 89% |
| O=C(CCl)N1N=C(c2cccs2)CC1c1ccco1 (stereo not shown) [PCM-0102295, O=C(CCl)N1N=C(c2cccs2)CC1c1ccco1] | 6% | -14.545 | -14.545 | 46% |
| Cn1nc(-c2ccc(Cl)cc2)cc1NC(=O)CCl [PCM-0102296, Cn1nc(-c2ccc(Cl)cc2)cc1NC(=O)CCl] | 38% | -15.558 | -15.558 | 54% |
| O=C(CCl)N1CCN(c2ccccc2Cl)CC1 [PCM-0102297, O=C(CCl)N1CCN(c2ccccc2Cl)CC1] | 0% | -14.978 | -14.978 | 35% |
| O=C(CCl)N1CCCC1c1ccc2c(c1)OCCO2 (stereo not shown) [PCM-0102298, O=C(CCl)N1CCCC1c1ccc2c(c1)OCCO2] | 0% | -15.407 | -15.407 | 100% |
| O=C(CCl)Nc1cc2c(cc1Br)OCCO2 [PCM-0102299, O=C(CCl)Nc1cc2c(cc1Br)OCCO2] | 67% | -16.302 | -16.302 | 27% |
| CCc1cc(C(=O)NNC(=O)CCl)sc1C [PCM-0102300, CCc1cc(C(=O)NNC(=O)CCl)sc1C] | 83% | -17.034 | -17.034 | 11% |
| CC(C)(C)NC(=O)CN1CCN(C(=O)CCl)CC1 [PCM-0102302, CC(C)(C)NC(=O)CN1CCN(C(=O)CCl)CC1] | 13% | -15.639 | -15.639 | 8% |
| CN(C)C(=O)CN1CCN(C(=O)CCl)CC1 [PCM-0102304, CN(C)C(=O)CN1CCN(C(=O)CCl)CC1] | 0% | -16.500 | -16.500 | 0% |
| Cc1cc(CNC(=O)CCl)ccc1F [PCM-0102305, Cc1cc(CNC(=O)CCl)ccc1F] | 59% | -16.230 | -16.230 | 0% |
| O=C(CCl)N1CCN(C(=O)c2cccs2)CC1 [PCM-0102306, O=C(CCl)N1CCN(C(=O)c2cccs2)CC1] | 0% | -15.421 | -15.421 | 0% |
| O=C(CCl)Nc1ccccc1C(=O)O [PCM-0102307, O=C(CCl)Nc1ccccc1C(=O)O] | 0% | -17.138 | -17.138 | 0% |
| O=C(CCl)NC(=O)Nc1ccc(Br)cc1 [PCM-0102308, O=C(CCl)NC(=O)Nc1ccc(Br)cc1] | 10% | -16.949 | -16.949 | 17% |
| CN1C(=O)c2ccc(NC(=O)CCl)cc2C1=O [PCM-0102309, CN1C(=O)c2ccc(NC(=O)CCl)cc2C1=O] | 19% | -15.418 | -15.418 | 12% |
| CC(=O)NNC(=O)CCl [PCM-0102310, CC(=O)NNC(=O)CCl] | 18% | -16.812 | -16.812 | 0% |

| SMILES | OTUB2 % labeling [1] | ln(avg k) [2, 4] | ln(avg k) [2, 5] | NUDT7 % labeling [3] |
| --- | --- | --- | --- | --- |
| O=C(CCl)Nc1cc2ccccc2cc1C(=O)O [PCM-0102311, O=C(CCl)Nc1cc2ccccc2cc1C(=O)O] | 10% | -15.248 | -15.248 | 17% |
| O=C(CCl)Nc1ccccc1Br [PCM-0102312, O=C(CCl)Nc1ccccc1Br] | 0% | -16.261 | -16.261 | 15% |
| O=C(CCl)N(C1CCCC1)C1CCS(=O)(=O)C1 (stereo not shown) [PCM-0102313, O=C(CCl)N(C1CCCC1)C1CCS(=O)(=O)C1] | 0% | -15.397 | -15.397 | 11% |
| NC(=O)c1ccsc1NC(=O)CCl [PCM-0102314, NC(=O)c1ccsc1NC(=O)CCl] | 0% | -15.717 | -15.717 | 18% |
| CC1(C)C2CCC1(C)C(NC(=O)CCl)C2 (stereo not shown) [PCM-0102315, CC1(C)C2CCC1(C)C(NC(=O)CCl)C2] | 0% | -16.417 | -16.417 | 0% |
| O=C(CCl)Nc1ccc(Cl)c([N+](=O)[O-])c1 [PCM-0102316, O=C(CCl)Nc1ccc(Cl)c([N+](=O)[O-])c1] | 36% | -15.463 | -15.463 | 28% |
| COc1cc2c(cc1OC)CN(C(=O)CCl)CC2 [PCM-0102317, COc1cc2c(cc1OC)CN(C(=O)CCl)CC2] | 14% | -14.822 | -14.822 | 10% |
| Cc1ccc(NC(=O)CCl)cc1 [PCM-0102320, Cc1ccc(NC(=O)CCl)cc1] | 24% | -16.011 | -16.011 | 0% |
| O=C(CCl)Nc1ccc(C(F)(F)F)cc1 [PCM-0102323, O=C(CCl)Nc1ccc(C(F)(F)F)cc1] | 17% | -15.637 | -15.637 | 7% |
| COc1ccc2c(c1)CCCN2C(=O)CCl [PCM-0102325, COc1ccc2c(c1)CCCN2C(=O)CCl] | 0% | -15.257 | -15.257 | 12% |
| O=C(CCl)N1CCN(S(=O)(=O)c2cccc(F)c2)CC1 [PCM-0102327, O=C(CCl)N1CCN(S(=O)(=O)c2cccc(F)c2)CC1] | 0% | -15.130 | -15.130 | 13% |
| O=C(CCl)Nc1ccc(F)c(F)c1 [PCM-0102328, O=C(CCl)Nc1ccc(F)c(F)c1] | 31% | -15.726 | -15.726 | 0% |
| COc1ccc2nc(NC(=O)CCl)sc2c1 [PCM-0102330, COc1ccc2nc(NC(=O)CCl)sc2c1] | 0% | -15.593 | -15.593 | 100% |
| O=C(CCl)Nc1cc2c(cc1Cl)OCCCO2 [PCM-0102331, O=C(CCl)Nc1cc2c(cc1Cl)OCCCO2] | 26% | -16.178 | -16.178 | 36% |
| CC1CCCC(NC(=O)NC(=O)CCl)C1C (stereo not shown) [PCM-0102332, CC1CCCC(NC(=O)NC(=O)CCl)C1C] | 0% | -15.913 | -15.913 | 0% |
| O=C(CCl)NC(=O)Nc1ccc2c(c1)OCO2 [PCM-0102333, O=C(CCl)NC(=O)Nc1ccc2c(c1)OCO2] | 53% | -15.968 | -15.968 | 29% |
| CC(NC(=O)CCl)c1ccc(Cl)cc1 (stereo not shown) [PCM-0102334, CC(NC(=O)CCl)c1ccc(Cl)cc1] | 25% | -16.367 | -16.367 | 0% |
